Assays:
primary rat HSC [1] = assay: DNA laddering (agarose gel electrophoresis); assay type: cell-based; conditions: after 24 h; 30 μg/ml CVI; serum-starved primary rat HSC
Method: Cells were treated 24 h with 0% FBS, CI, CVI or 10% FBS. Equal cell numbers (1.5x10^6) were used to detect oligonucleosomes using the Apoptotic DNA Ladder Kit (Boehringer Mannheim, Germany) according to the manufacturer’s instructions. The isolated DNA from each group was electrophoresed on a 1.5% Agarose-Gel at 75 V for 1.5 hours, stained with ethidium bromide and visualized via an UV light source (302 nm).

primary rat HSCs = assay: Spreading and survival after serum withdrawal, phase contrast microscopy; assay type: cell-based; conditions: within 24 h; medium lacking FBS; 30 μg/ml collagen; three independent experiments
Method: (§1) Activated HSC (third passage) were serum starved for 24 h in standard medium without FBS (starving medium), followed by dissociation with 500 μl 0.05% trypsin-EDTA (Biochrom, Berlin, Germany) and neutralization with 30 ml starving medium containing 1 g/l soybean trypsin inhibitor and 1 g/l ovalbumin. Alternatively, cells were scraped carefully with a cell-scraper (Costar, Cambridge, MA, USA) to exclude any potential effect of trypsin. […] For quantification of spreading, cells that had attached were counted 12 hours after plating and spreading efficiency was determined as percentage of plated cells in each group. De-novo DNA synthesis and apoptosis were assessed by morphological criteria, Cell death detection ELISA and FACS analysis as described below. […] After blocking the cells 1h with DMEM+1% FBS, the cells were incubated with primary antibodies against a-actin (Sigma-Aldrich, Taufkirchen, Germany, #A2547; dilution 1:200) and GFAP (Sigma-Aldrich, #G9269; dilution 1:20) followed by a washing step with PBS and the incubation with fluorescence-labeled secondary antibodies (Alexa Fluor 546 & Alexa Fluor 488, Molecular Probes, Eugene, USA, #A11030 & #A11034; dilution 1:100). […]

CFSC = assay: Fibrosis-associated gene expression, quantitative real-time PCR; assay type: cell-based, rat
Method: 30 mg/l CVI, 133 mg/l of the monomeric alpha chains of CVI and/or TGF-β (2 ng/ml) were added after 24 h. […] Reverse transcribed complementary DNA templates were amplified by quantitative real-time polymerase chain reaction (PCR; Roche Diagnostics, Mannheim, Germany) using fluorogenic probes labeled with 6-carboxy-fluorescein and 6-carboxy-tetramethylrhodamin (Sigma- Genosys, Steinheim, Germany) and primer pairs (Invitrogen, Karlsruhe, Germany) specific for fibrosis-associated genes (for sequences see S2 Table). Gene expressions were normalized to glyceraldehyde phosphate dehydrogenase (GAPDH).

primary rat HSC [2] = assay: Morphology and αSMA protein expression (activation of HSCs); assay type: cell-based
Method: as §1
Dislodged cells were centrifuged at 800 x g/10 min and lysed with 100 μl lysis buffer. […] The emitted fluorescence was assessed at 570 nm in a SpectraMax Gemini EM (Molecular Devices, Biberach an der Riß, Germany). […]

With “CVI: Human collagen VI isolated from placentas by pepsin digestion; triple helical, soluble” the “apoptosis-associated DNA laddering” value (primary rat HSC [1]) was “only faint”, the “suppression of growth factor withdrawal-induced apoptosis (attachment, cell shrinkage)” value (primary rat HSCs) was “potently suppressed” and the “kinetics of CI expression compared with TGF-β” value (CFSC; CFSC, medium containing 0.2% FBS, S3 Fig) was “slightly decreased and delayed”. The “αSMA, CI and TGF-β expression” value (CFSC; serum-starved CFSC, 30 mg/l CVI, 24 h, qPCR normalized to GAPDH) was “potently induced”, the “reduction of the expression of MMP-3” value (CFSC; serum-starved CFSC, 24 h, TGF-β 2 ng/ml, CVI 30 mg/l, qPCR normalized to GAPDH) was “only slightly reduced” and the “expression of TIMP-1” value (CFSC; serum-starved CFSC, 24 h, qPCR normalized to GAPDH) was “stimulated the expression of TIMP-1”. The “protein expression of αSMA” value (primary rat HSC [2]; freshly isolated rat HSCs, immunostaining, detected as early as three days, immunoblotting) was “strongly induced” and the “formation of cytoplasmic extensions” value (primary rat HSC [2]; primary rat HSC, serum-reduced medium containing 1% FBS, five days) was “induced the formation of distinct cytoplasmic extensions”.
